Test results taken from US9259409B2, “Compositions comprising a prostaglandin for treating neuropsychiatric conditions” (Inceptum Research & Therapeutics, Inc., priority 2011, dated 2016).
“Also recorded” adds a separate entry of the source.

Tests used:
[1] = test system: GSK-3; test: Glycogen deposition in fat body tissue of third instar larvae; type: cell-based, Drosophila melanogaster; conditions: 10 and 20 μM; vs vehicle (DMSO)
Description: GSK-3 also functions in glycogen deposition via an independent pathway to that of the Wnt/Wg signaling pathway. GSK-3 functions in the glycogen deposition pathway by phosphorylating and inactivating glycogen synthase, which catalyzes the rate-limiting step of glycogen synthesis. To further confirm that PG and PG derivatives inhibit GSK-3 activity, fat body tissue from third instar Drosophila melanogaster larvae was treated with vehicle (DMSO) or 10 and 20 μM latanoprost and the effects of drug treatment on glycogen accumulation was monitored.

[2] = test system: GSK-3; test: Cytoplasmic β-catenin stabilization in HEK293T cells (Western blot); type: cell-based, human; conditions: 10 μM, vs DMSO-treated cells
Description: Human embryonic kidney 293T (HEK293T) cells, U87MG astrocytoma and the human oligodendrocyte cell line MO3-13 were grown in Dubelco Minimal Eagle Media (DMEM) (Invitrogen, Carlsbad, Calif., USA) supplemented with 5% heat inactivated fetal bovine serum. Cells were grown to 70% confluence prior to treatment. […] Cells were exposed to drug for 3 hours at 37° C. in a 5% CO2 incubator. U87MG cells were grown to 70% confluence prior to treatment. Cells were treated with either DMSO vehicle (NT) or individually with 1, 5 and 10 μM latanoprost in DMEM lacking fetal bovine serum. Cells were exposed to treatments for 6 hours at 37° C. in a 5% CO2 incubator. The human oligodendrocyte cell line MO3-13 was grown and differentiated according to the methods described in McLaurin et al. (McLaurin, J., Trudel, G. C., Shaw, I. T., Antel, J. P., and Cashman, N. R., J. Neurobiol., 26: 283-293, 1995). On the third day of serum starvation, cells were treated with either DMSO vehicle (NT) or individually with 1, 5 and 10 μM latanoprost. Cells were exposed to treatments for 6 hours at 37° C. in a 5% CO2 incubator.
(§1) For detection of CREB and Serine-133 (S133)-phosphorylated CREB, serotonin receptor 5HT2A, TCF/LEF1, BDNF and TNF-total protein extracts were prepared from cell cultures using a sintered glass tissue homogenizer (Wheaton, Millville, N.J., USA) in phosphate-buffered saline (PBS), pH 7.5, 3M urea. For detection of β-catenin, cell cultures were washed with PBS, trypsinized, and pelleted at 1,000 rpm for 4 minutes. The cell pellets were washed and resuspended in cold hypotonic buffer consisting of 10 mM HEPES (pH 7.5), 1.5 mM MgCl2, 10 mM KCl, 0.5 mM DTT, and EDTA-free protease inhibitor (Roche, Laval, QC, Canada) in an ice bath for 5 minutes. The mixture was then homogenized using a dounce homogenizer and the cellular debris was pelleted by centrifugation at 4° C. Cytoplasmic fractions were recovered and used for assaying β-catenin.
(§2) Protein concentrations were determined by the Peterson method (Peterson, Analyt. Biochem., 83: 346-356, 1977). […]

[3] = test system: β-catenin; test: β-catenin stabilization in the brain of open field test mice (Western blot); type: in vivo, mouse; conditions: brains after open field test; relative to mice treated with saline; n=3
Description: Following the open field test behavioral analysis of mice, the mice were euthanized and their brains were dissected and bifurcated along the longitudinal fissure. Brain samples from mice treated with vehicle (saline), latanoprost, or lithium were processed for β-catenin stabilization by extraction with hypotonic buffer. The levels of stabilized β-catenin were analyzed by Western blot, and the relative amounts of β-catenin (represented as the mean relative amount of three mice per group) were quantified.

[4] = test system: human oligodendrocyte cell line MO3-13; test: Immuno-slotblot assay for secreted BDNF, oligodendrocyte conditioned media; type: cell-based; conditions: 1 μM, 5 μM, 10 μM; oligodendrocytes media; vs non-treated and DMSO
Description: (§3) Human embryonic kidney 293T (HEK293T) cells, U87MG astrocytoma and the human oligodendrocyte cell line MO3-13 were grown in Dubelco Minimal Eagle Media (DMEM) (Invitrogen, Carlsbad, Calif., USA) supplemented with 5% heat inactivated fetal bovine serum. Cells were grown to 70% confluence prior to treatment. HEK293T cells were treated individually with […] latanoprost, unoprostone, bimatoprost, fluprostenol, PGE2, and PGF2α in serum-free DMEM. Cells were exposed to drug for 3 hours at 37° C. in a 5% CO2 incubator. U87MG cells were grown to 70% confluence prior to treatment. […]
(§4) Cell culture media from cells that were not treated or treated with DMSO, 1, 5 or 10 μM latanoprost treated was collected in 15-mL screw cap polypropylene tubes from cell culture dishes. […] The relative amount of BDNF secreted by U87MG astrocytoma and MO3-13 oligodendrocyte cell lines were determined by an immune-slotblot method in which 200 μL of conditioned media was applied in triplicate to nitrocellulose membrane pre-wet in water in a Biodot (SF) ultrafiltration unit (Bio-Rad Laboratories, Mississauga, ON, Canada) under vacuum. […] After washing the membrane as above, the bound secondary antibody was detected by ECL Advance™ Western blot HRP substrate (GE Healthcare) using a ChemiDoc™ MP Imaging System (Bio-Rad Laboratories). The relative amount of BDNF was determined by using ImageLab™ software (BioRad). […]

[5] = test system: CREB transcription factor; test: CREB transcription factor activation (S133 phosphorylation) in HEK293T cells (Western blot); type: cell-based, human; conditions: 10 μM, vs DMSO-treated cells
Description: Human embryonic kidney 293T (HEK293T) cells, U87MG astrocytoma and the human oligodendrocyte cell line MO3-13 were grown in Dubelco Minimal Eagle Media (DMEM) (Invitrogen, Carlsbad, Calif., USA) supplemented with 5% heat inactivated fetal bovine serum. Cells were grown to 70% confluence prior to treatment. […] Cells were exposed to drug for 3 hours at 37° C. in a 5% CO2 incubator. U87MG cells were grown to 70% confluence prior to treatment. Cells were treated with either DMSO vehicle (NT) or individually with 1, 5 and 10 μM latanoprost in DMEM lacking fetal bovine serum. Cells were exposed to treatments for 6 hours at 37° C. in a 5% CO2 incubator. The human oligodendrocyte cell line MO3-13 was grown and differentiated according to the methods described in McLaurin et al. (McLaurin, J., Trudel, G. C., Shaw, I. T., Antel, J. P., and Cashman, N. R., J. Neurobiol., 26: 283-293, 1995). On the third day of serum starvation, cells were treated with either DMSO vehicle (NT) or individually with 1, 5 and 10 μM latanoprost. Cells were exposed to treatments for 6 hours at 37° C. in a 5% CO2 incubator. […]
as §2

[6] = test system: GSK-3; test: Distalless (Dll) expression in Drosophila wing imaginal discs as assay of GSK-3 function; type: cell-based; conditions: for Dll expression in wing imaginal discs: Dll lacZ, vs DMSO
[7] = test system: U87MG cells; test: Bipolar disorder biomarkers in glioblastoma U87 cell line (Western blot); type: cell-based, human; conditions: 1 μM, 5 μM, 10 μM, vs untreated cells
Description: Human embryonic kidney 293T (HEK293T) cells, U87MG astrocytoma and the human oligodendrocyte cell line MO3-13 were grown in Dubelco Minimal Eagle Media (DMEM) (Invitrogen, Carlsbad, Calif., USA) supplemented with 5% heat inactivated fetal bovine serum. Cells were grown to 70% confluence prior to treatment. HEK293T cells were treated individually with […] latanoprost, unoprostone, bimatoprost, fluprostenol, PGE2, and PGF2α in serum-free DMEM. Cells were exposed to drug for 3 hours at 37° C. in a 5% CO2 incubator. U87MG cells were grown to 70% confluence prior to treatment. Cells were treated with either DMSO vehicle (NT) or individually with 1, 5 and 10 μM latanoprost in DMEM lacking fetal bovine serum. Cells were exposed to treatments for 6 hours at 37° C. in a 5% CO2 incubator. The human oligodendrocyte cell line MO3-13 was grown and differentiated according to the methods described in McLaurin et al. (McLaurin, J., Trudel, G. C., Shaw, I. T., Antel, J. P., and Cashman, N. R., J. Neurobiol., 26: 283-293, 1995). On the third day of serum starvation, cells were treated with either DMSO vehicle (NT) or individually with 1, 5 and 10 μM latanoprost. Cells were exposed to treatments for 6 hours at 37° C. in a 5% CO2 incubator.
as §1
Protein concentrations were determined by the Peterson method (Peterson, Analyt. Biochem., 83: 346-356, 1977). Proteins (20 μg/lane) were loaded onto SDS-polyacrylamide gels and separated by electrophoresis. Proteins in gels were transferred onto PVDF membranes and processed for antibody reactions. To detect CREB, S133-phosphorylated CREB, and GAPDH loading controls, antibodies were diluted in 2% ECL Advance™ blocking reagent (GE Healthcare, Mississauga, ON, Canada) and solubilized in PBS-Tween20. Membranes were probed overnight at 4° C. Membranes were washed four times with PBS-Tween20 and labeled for 1 hour at 20° C. with secondary antibodies conjugated to horseradish peroxidase (HRP). The membrane was washed four more times with PBS-Tween20 and HRP activity was developed using Advance™ chemiluminescence (ECL) reagent (GE Healthcare, Mississauga, ON, Canada) according to the manufacturer's instructions. PVDF membranes were exposed to X-ray film.
We next examined the effects of latanoprost treatment (1 μM, 5 μM, and 10 μM) on other bipolar disorder biomarkers in glioblastoma U87 cell line.

[8] = test system: DBA/2J mice; test: Open field test, amphetamine-stimulated activity mouse model of bipolar disorder; type: in vivo
Description: DBA/2J strain mice (Jackson Laboratories, Bar Harbor, Me., USA) were obtained with an approximate starting age of 8 weeks and an average body weight of 25.9 g. Mice were acclimatized for at least three days prior to study commencement, and animals in poor condition were rejected during the acclimatization period. All mice were housed under identical conditions in animal rooms with HEPA-filtered air at a temperature of 70° F.+/−5° F. and a relative humidity of 50%+/−20%. Animal rooms maintained a minimum of 12 to 15 air changes per hour with a light/dark cycle of 12 hours on and 12 hours off with no twilight. Sterile Bed-O-Cobs® bedding was used and changed a minimum of once per week. […]
At the commencement of the study, sixty (60) mice were randomly divided into six (6) groups of ten (10) animals. […] During this time, distance traveled was automatically recorded using TopScan (Clever Sys, Reston, Va., USA) video tracking software.
The data herein indicate that PG and PG derivatives may be effective in treating neuropsychiatric conditions such as bipolar disorder. Therefore, we evaluated the efficacy of latanoprost in an open field model of bipolar disorder in mice. […]
Total distance traveled for each mouse over a 20-minute session was recorded using TopScan (Clever Sys, Reston, Va., USA) video tracking software. […]

[9] = test system: U87MG astrocytoma; test: Immuno-slotblot assay for secreted BDNF, astrocytoma conditioned media; type: cell-based, human; conditions: 1 μM, 5 μM, 10 μM; astrocyte conditioned media; vs non-treated and DMSO
Description: as §3, §4

Q: Which results are given for `CC(C)OC(=O)CCC/C=C\C[C@@H]1[C@@H](CC[C@@H](O)CCc2ccccc2)[C@H](O)C[C@@H]1O` [latanoprost, propan-2-yl-(Z)-7-[(1R,2R,3R,5S)-3,5-dihydroxy-2-[(3R)-3-hydroxy-5-phenylpentyl]cyclopentyl]-hept-5-enoate]?
A: glycogen accumulation in fat body tissue [1]: increase in glycogen accumulation in a dosage-dependent manner; levels of cytoplasmic β-catenin [2]: increased levels of cytoplasmic β-catenin; levels of β-catenin in brain [3]: significantly increased levels of β-catenin; amount of BDNF secreted [4]: no significant increase; levels of S133 phosphorylated-CREB [5]: increased levels of 5133 phosphorylated-CREB; Dll expression in wing imaginal discs ([6]; 20 μM): increased Dll expression; Dll activation (DLL protein levels in wing pouch) ([6]; increasing doses 1 μM, 5 μM, 10 μM and 20 μM, vs DMSO control vehicle): significant activation of Dll; levels of BDNF [7]: increased levels; levels of inflammatory cytokine TNF-α [7]: reduced levels; levels of serotonin receptor 5HT2A [7]: increased levels; levels of transcription factor TCF/LEF1 [7]: increased levels; phosphorylation at Ser133 on CREB [7]: increased levels; total level of CREB protein [7]: remaining relatively constant; amphetamine-stimulated locomotion (distance traveled) ([8]; final five minutes of 20-minute open field test, 0.5 mg/kg amphetamine, drug IP 1 hour prior to test, 0.5 mg/kg): significantly reduced; also recorded: significantly (P<0.05) attenuates; activity in saline-treated mice ([8]; no amphetamine, compared among vehicle, latanoprost, lithium): No significant differences; amount of BDNF secreted [9]: increased significantly

Q: For `CCCC(CCC)C(=O)O` [valproate], which “Dll expression in wing imaginal discs” value ([6]; 1 mM) is on record?
A: activation of Dll expression

Q: Which “levels of cytoplasmic β-catenin” value [2] does the source give for `CCCCC[C@H](O)/C=C/[C@H]1[C@H](O)CC(=O)[C@@H]1C/C=C\CCCC(=O)O` [PGE2, (Z)-7-[(1R,2R,3R)-3-hydroxy-2-[(E)-(3S)-3-hydroxy-1-octenyl]-5-oxo-cyclopentyl]-hept-5-enoic acid] here?
A: increased levels of cytoplasmic β-catenin

Q: `CCCCC[C@H](O)/C=C/[C@@H]1[C@@H](C/C=C\CCCC(=O)O)[C@@H](O)C[C@H]1O` [PGF2α, (Z)-7-[(1R,2R,3R,5S)-3,5-dihydroxy-2-[(E)-(3S)-3-hydroxy-1-octenyl]-cyclopentyl]-5-heptenoic acid] was tested. Which “levels of cytoplasmic β-catenin” value [2] did it give?
A: increased levels of cytoplasmic β-catenin
